In patent US20260256940A1, “MITOCHONDRIA AS A TARGETED DELIVERY PLATFORM” (cellvie AG, priority 2022, published 2026):

System: heart of a pig
Details: in vivo
Experimental: Five milliliters of mitochondria-ssDNA suspension (ssDNA is fluorescently labeled with FAM, and the ssDNA oligo sequence 5′ to 3′ is [sequence]) in conjugation buffer (at a concentration of 1 mg/mL) were directly injected into the heart of the pig. After two hours, the pig was sacrificed, and a small piece of heart tissue where the injection had occurred was cut. The tissue was fixed using formaldehyde, and a histology cut was performed. The tissue was stained with DAPI and rhodamine phalloidin (Thermo Fisher Scientific) to visualize cell nuclei and F-actin networks, respectively. The FAM signal represents the ssDNA signal. A control experiment was prepared by directly injecting naked ssDNA.
An in vivo experiment was conducted to understand the stability of the mitochondria-ssDNA complex inside a tissue or organ after injection. Using a syringe, either the mitochondria-ssDNA complex or naked ssDNA (control) were directly injected into the heart of a pig. Two hours post-injection, the tissue was processed and fluorescently stained using DAPI and rhodamine phalloidin to stain cell nuclei and F-actins, respectively. The samples were analyzed using a fluorescence microscope to visualize nuclei, actin and the FAM-labeled ssDNA.

With “naked ssDNA: FAM-labeled ssDNA, oligo sequence 5′ to 3′ GCAACAGTGAAGGAAAGCC, injected without mitochondria as control (FAM label, chemistry not fully specified; listed 3' to 5')” the “ssDNA signal in heart tissue” value was “No ssDNA signal was observed”.
